Experimental data as given in ChEMBL document CHEMBL4665775, “Half-life extension of peptidic APJ agonists by N-terminal lipid conjugation” (Bioorg Med Chem Lett, 2020).

Tests used:
Apelin receptor = biological target: T1, Apelin receptor (Rattus norvegicus, UniProt Q9JHG3); experiment: Agonist activity at rat APJ receptor stably expressed in CHO cell membranes in presence of [35S]GTPgammaS by scintillation proximity assay; assay type: functional
T1 sequence (Q9JHG3 whole entry): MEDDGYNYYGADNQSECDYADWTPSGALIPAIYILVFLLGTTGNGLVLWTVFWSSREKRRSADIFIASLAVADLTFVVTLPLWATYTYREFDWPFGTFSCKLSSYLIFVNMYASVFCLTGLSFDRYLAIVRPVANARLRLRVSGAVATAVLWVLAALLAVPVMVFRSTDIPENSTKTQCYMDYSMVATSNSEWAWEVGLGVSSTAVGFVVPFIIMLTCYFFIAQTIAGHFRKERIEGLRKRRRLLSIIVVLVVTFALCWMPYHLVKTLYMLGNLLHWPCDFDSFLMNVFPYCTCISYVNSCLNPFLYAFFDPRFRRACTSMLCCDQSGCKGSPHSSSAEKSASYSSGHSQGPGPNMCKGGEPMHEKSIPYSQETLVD

[1] = Plasma protein binding in rat assessed as unbound fraction by LC-MS/MS analysis; assay type: ADME, cell-free
[2] = Stability in rat plasma assessed as compound remaining at 4 hrs; assay type: ADME, cell-free; conditions: read-out: Stabilty
[3] = Stability in rat Kidney S9 fraction assessed as compound remaining at 4 hrs; assay type: ADME, subcellular; conditions: read-out: Stabilty

Structure (SMILES)	EC50 (Apelin receptor) [nM]	fraction unbound [1]	remaining at 4 h [2] [%]	remaining at 4 h [3] [%]
CCCCCCCCCCCCCCCCCC(=O)N[C@@H](CCC(=O)NCCOCCOCC(=O)NCCOCCOCC(=O)N[C@@H](CCCCNC(=N)N)C(=O)N[C@H](CCCNC(=N)N)C(=O)N[C@@H](CCC(N)=O)C(=O)N[C@@H](CCCCNC(=N)N)C(=O)N1CCC[C@H]1C(=O)N[C@H](CCCNC(=N)N)C(=O)N(C)[C@@H](CC(C)C)C(=O)N[C@@H](CO)C(=O)N[C@@H](Cc1c[nH]cn1)C(=O)N[C@@H](CCCCN)C(=O)NCC(=O)N1[C@H](C(=O)N[C@@H](Cc2ccc(I)cc2)C(=O)N2CCC[C@H]2C(=O)N[C@H](Cc2ccc(-c3ccccc3)cc2)C(=O)O)C[C@@H]2CCCC[C@@H]21)C(=O)O	3.78	–	–	–
CC(C)C[C@@H](C(=O)N[C@@H](CO)C(=O)N[C@@H](Cc1c[nH]cn1)C(=O)N[C@@H](CCCCN)C(=O)NCC(=O)N1[C@H](C(=O)N[C@@H](Cc2ccc(I)cc2)C(=O)N2CCC[C@H]2C(=O)N[C@H](Cc2ccc(-c3ccccc3)cc2)C(=O)O)C[C@@H]2CCCC[C@@H]21)N(C)C(=O)[C@@H](CCCNC(=N)N)NC(=O)[C@@H]1CCCN1C(=O)[C@H](CCCCNC(=N)N)NC(=O)[C@H](CCC(N)=O)NC(=O)[C@@H](CCCNC(=N)N)NC(=O)[C@H](CCCCNC(=N)N)NC(=O)COCCOCCNC(=O)COCCOCCNC(=O)CC[C@H](NC(=O)CCCCCCCCCCCCCCC(=O)O)C(=O)O	56.1	–	–	–
CC(C)C[C@@H](C(=O)N[C@@H](CO)C(=O)N[C@@H](Cc1c[nH]cn1)C(=O)N[C@@H](CCCCN)C(=O)NCC(=O)N1[C@H](C(=O)N[C@@H](Cc2ccc(I)cc2)C(=O)N2CCC[C@H]2C(=O)N[C@H](Cc2ccc(-c3ccccc3)cc2)C(=O)O)C[C@@H]2CCCC[C@@H]21)N(C)C(=O)[C@@H](CCCNC(=N)N)NC(=O)[C@@H]1CCCN1C(=O)[C@H](CCCCNC(=N)N)NC(=O)[C@H](CCC(N)=O)NC(=O)[C@@H](CCCNC(=N)N)NC(=O)[C@H](CCCCNC(=N)N)NC(=O)COCCOCCNC(=O)COCCOCCNC(=O)CC[C@H](NC(=O)CCCCCCCCCCC(=O)O)C(=O)O	9.34	–	–	–
CCCCCCCCCC(=O)N[C@@H](CCC(=O)NCCOCCOCC(=O)NCCOCCOCC(=O)N[C@@H](CCCCNC(=N)N)C(=O)N[C@H](CCCNC(=N)N)C(=O)N[C@@H](CCC(N)=O)C(=O)N[C@@H](CCCCNC(=N)N)C(=O)N1CCC[C@H]1C(=O)N[C@H](CCCNC(=N)N)C(=O)N(C)[C@@H](CC(C)C)C(=O)N[C@@H](CO)C(=O)N[C@@H](Cc1c[nH]cn1)C(=O)N[C@@H](CCCCN)C(=O)NCC(=O)N1[C@H](C(=O)N[C@@H](Cc2ccc(I)cc2)C(=O)N2CCC[C@H]2C(=O)N[C@H](Cc2ccc(-c3ccccc3)cc2)C(=O)O)C[C@@H]2CCCC[C@@H]21)C(=O)O	1.35	–	–	–
CCCC(=O)N[C@@H](CCC(=O)NCCOCCOCC(=O)NCCOCCOCC(=O)N[C@@H](CCCCNC(=N)N)C(=O)N[C@H](CCCNC(=N)N)C(=O)N[C@@H](CCC(N)=O)C(=O)N[C@@H](CCCCNC(=N)N)C(=O)N1CCC[C@H]1C(=O)N[C@H](CCCNC(=N)N)C(=O)N(C)[C@@H](CC(C)C)C(=O)N[C@@H](CO)C(=O)N[C@@H](Cc1c[nH]cn1)C(=O)N[C@@H](CCCCN)C(=O)NCC(=O)N1[C@H](C(=O)N[C@@H](Cc2ccc(I)cc2)C(=O)N2CCC[C@H]2C(=O)N[C@H](Cc2ccc(-c3ccccc3)cc2)C(=O)O)C[C@@H]2CCCC[C@@H]21)C(=O)O	0.24	–	–	–
CC(C)C[C@@H](C(=O)N[C@@H](CO)C(=O)N[C@@H](Cc1c[nH]cn1)C(=O)N[C@@H](CCCCN)C(=O)NCC(=O)N1[C@H](C(=O)N[C@@H](Cc2ccc(I)cc2)C(=O)N2CCC[C@H]2C(=O)N[C@H](Cc2ccc(-c3ccccc3)cc2)C(=O)O)C[C@@H]2CCCC[C@@H]21)N(C)C(=O)[C@@H](CCCNC(=N)N)NC(=O)[C@@H]1CCCN1C(=O)[C@H](CCCCNC(=N)N)NC(=O)[C@H](CCC(N)=O)NC(=O)[C@@H](CCCNC(=N)N)NC(=O)[C@H](CCCCNC(=N)N)NC(=O)COCCOCCNC(=O)COCCOCCNC(=O)CC[C@H](NC(=O)CCCCCCCCC(=O)O)C(=O)O	2.89	–	–	–
CCCCCCCCCCCCCCCC(=O)N[C@@H](CCC(=O)NCCOCCOCC(=O)NCCOCCOCC(=O)N[C@@H](CCCCNC(=N)N)C(=O)N[C@H](CCCNC(=N)N)C(=O)N[C@@H](CCC(N)=O)C(=O)N[C@@H](CCCCNC(=N)N)C(=O)N1CCC[C@H]1C(=O)N[C@H](CCCNC(=N)N)C(=O)N(C)[C@@H](CC(C)C)C(=O)N[C@@H](CO)C(=O)N[C@@H](Cc1c[nH]cn1)C(=O)N[C@@H](CCCCN)C(=O)NCC(=O)N1[C@H](C(=O)N[C@@H](Cc2ccc(I)cc2)C(=O)N2CCC[C@H]2C(=O)N[C@H](Cc2ccc(-c3ccccc3)cc2)C(=O)O)C[C@@H]2CCCC[C@@H]21)C(=O)O	4.01	0.0189	–	–
CCCCCCCC(=O)N[C@@H](CCC(=O)NCCOCCOCC(=O)NCCOCCOCC(=O)N[C@@H](CCCCNC(=N)N)C(=O)N[C@H](CCCNC(=N)N)C(=O)N[C@@H](CCC(N)=O)C(=O)N[C@@H](CCCCNC(=N)N)C(=O)N1CCC[C@H]1C(=O)N[C@H](CCCNC(=N)N)C(=O)N(C)[C@@H](CC(C)C)C(=O)N[C@@H](CO)C(=O)N[C@@H](Cc1c[nH]cn1)C(=O)N[C@@H](CCCCN)C(=O)NCC(=O)N1[C@H](C(=O)N[C@@H](Cc2ccc(I)cc2)C(=O)N2CCC[C@H]2C(=O)N[C@H](Cc2ccc(-c3ccccc3)cc2)C(=O)O)C[C@@H]2CCCC[C@@H]21)C(=O)O	3.05	0.0027	–	–
CCCCCCCCCCCC(=O)N[C@@H](CCC(=O)NCCOCCOCC(=O)NCCOCCOCC(=O)N[C@@H](CCCCNC(=N)N)C(=O)N[C@H](CCCNC(=N)N)C(=O)N[C@@H](CCC(N)=O)C(=O)N[C@@H](CCCCNC(=N)N)C(=O)N1CCC[C@H]1C(=O)N[C@H](CCCNC(=N)N)C(=O)N(C)[C@@H](CC(C)C)C(=O)N[C@@H](CO)C(=O)N[C@@H](Cc1c[nH]cn1)C(=O)N[C@@H](CCCCN)C(=O)NCC(=O)N1[C@H](C(=O)N[C@@H](Cc2ccc(I)cc2)C(=O)N2CCC[C@H]2C(=O)N[C@H](Cc2ccc(-c3ccccc3)cc2)C(=O)O)C[C@@H]2CCCC[C@@H]21)C(=O)O	3.56	0.0013	–	–
CC(C)C[C@@H](C(=O)N[C@@H](CO)C(=O)N[C@@H](Cc1c[nH]cn1)C(=O)N[C@@H](CCCCN)C(=O)NCC(=O)N1[C@H](C(=O)N[C@@H](Cc2ccc(I)cc2)C(=O)N2CCC[C@H]2C(=O)N[C@H](Cc2ccc(-c3ccccc3)cc2)C(=O)O)C[C@@H]2CCCC[C@@H]21)N(C)C(=O)[C@@H](CCCNC(=N)N)NC(=O)[C@@H]1CCCN1C(=O)[C@H](CCCCNC(=N)N)NC(=O)[C@H](CCC(N)=O)NC(=O)[C@@H](CCCNC(=N)N)NC(=O)[C@H](CCCCNC(=N)N)NC(=O)COCCOCCNC(=O)COCCOCCNC(=O)CC[C@H](NC(=O)CCCCCCCCCCCCC(=O)O)C(=O)O	17.8	–	–	–
CC(C)C[C@@H](C(=O)N[C@@H](CO)C(=O)N[C@@H](Cc1c[nH]cn1)C(=O)N[C@@H](CCCCN)C(=O)NCC(=O)N1[C@H](C(=O)N[C@@H](Cc2ccc(I)cc2)C(=O)N2CCC[C@H]2C(=O)N[C@H](Cc2ccc(-c3ccccc3)cc2)C(=O)O)C[C@@H]2CCCC[C@@H]21)N(C)C(=O)[C@@H](CCCNC(=N)N)NC(=O)[C@@H]1CCCN1C(=O)[C@H](CCCCNC(=N)N)NC(=O)[C@H](CCC(N)=O)NC(=O)[C@@H](CCCNC(=N)N)NC(=O)[C@H](CCCCNC(=N)N)NC(=O)COCCOCCNC(=O)COCCOCCNC(=O)CC[C@H](NC(=O)CCCCCCC(=O)O)C(=O)O	2.61	–	–	–
CC(C)C[C@@H](C(=O)N[C@@H](CO)C(=O)N[C@@H](Cc1c[nH]cn1)C(=O)N[C@@H](CCCCN)C(=O)NCC(=O)N1[C@H](C(=O)N[C@@H](Cc2ccc(I)cc2)C(=O)N2CCC[C@H]2C(=O)N[C@H](Cc2ccc(-c3ccccc3)cc2)C(=O)O)C[C@@H]2CCCC[C@@H]21)N(C)C(=O)[C@@H](CCCNC(=N)N)NC(=O)[C@@H]1CCCN1C(=O)[C@H](CCCCNC(=N)N)NC(=O)[C@H](CCC(N)=O)NC(=O)[C@@H](CCCNC(=N)N)NC(=O)[C@H](CCCCNC(=N)N)NC(=O)COCCOCCNC(=O)COCCOCCNC(=O)CC[C@H](NC(=O)CCC(=O)O)C(=O)O	0.49	–	–	–
CCCCCCCCCCCCCC(=O)N[C@@H](CCC(=O)NCCOCCOCC(=O)NCCOCCOCC(=O)N[C@@H](CCCCNC(=N)N)C(=O)N[C@H](CCCNC(=N)N)C(=O)N[C@@H](CCC(N)=O)C(=O)N[C@@H](CCCCNC(=N)N)C(=O)N1CCC[C@H]1C(=O)N[C@H](CCCNC(=N)N)C(=O)N(C)[C@@H](CC(C)C)C(=O)N[C@@H](CO)C(=O)N[C@@H](Cc1c[nH]cn1)C(=O)N[C@@H](CCCCN)C(=O)NCC(=O)N1[C@H](C(=O)N[C@@H](Cc2ccc(I)cc2)C(=O)N2CCC[C@H]2C(=O)N[C@H](Cc2ccc(-c3ccccc3)cc2)C(=O)O)C[C@@H]2CCCC[C@@H]21)C(=O)O	3.63	0.0023	–	–
CC(=O)N[C@@H](CCC(=O)NCCOCCOCC(=O)NCCOCCOCC(=O)N[C@@H](CCCCNC(=N)N)C(=O)N[C@H](CCCNC(=N)N)C(=O)N[C@@H](CCC(N)=O)C(=O)N[C@@H](CCCCNC(=N)N)C(=O)N1CCC[C@H]1C(=O)N[C@H](CCCNC(=N)N)C(=O)N(C)[C@@H](CC(C)C)C(=O)N[C@@H](CO)C(=O)N[C@@H](Cc1c[nH]cn1)C(=O)N[C@@H](CCCCN)C(=O)NCC(=O)N1[C@H](C(=O)N[C@@H](Cc2ccc(I)cc2)C(=O)N2CCC[C@H]2C(=O)N[C@H](Cc2ccc(-c3ccccc3)cc2)C(=O)O)C[C@@H]2CCCC[C@@H]21)C(=O)O	0.92	0.001	> 90	30
